Results from patent US11419868B2, “Low dose product and method for treating diarrhea” (MAREGADE RX, LLC, priority 2016, dated 2022).

Key:
rat colonic mucosa [1] = assay: PGE2-induced short-circuit current across rat colonic mucosa; assay type: cell-based; details: 6 μM famotidine, 3 μM cetirizine, each alone; FIG. 3
Text: (§1) Data are presented as mean±standard error of mean (SEM). […] 2014 December; 63(12):1873-82).
(§2) These secretogogues were selected because PGE2 mediates the occurrence of watery diarrhea in response to a low-grade inflammatory insult and forakolin because it selectively activates all forms of cAMP-mediated intestinal secretion.

[2] = tested on: stress-induced visceral hypersensitivity; assay: Chronic water avoidance stress (WAS) model, visceromotor response to colorectal distension; details: oral twice daily 3.5 days
rat colonic mucosa [3] = assay: Electrical field stimulation-induced short-circuit current across rat colonic mucosa in Ussing chambers; assay type: cell-based; details: individually or combined; for effect on EFS-induced ΔISC: famotidine 10 μM, cetirizine 5 μM, EFS 16 Hz, FIG. 1; for inhibition of EFS-induced ΔISC: famotidine 200 μM, cetirizine 100 μM, FIG. 2
Text: as §1

colonic hypersensitivity = assay: Three rat models of colonic hypersensitivity, overall statement and conversion to human equivalent doses; details: 0.25 mg/kg cetirizine, 0.6 mg/kg famotidine, two times per day p.o.
[4] = tested on: TNBS-induced, post-inflammatory colonic hypersensitivity; assay: TNBS-induced post-inflammatory colonic hypersensitivity model, VMR to CRD; details: 0.25 mg/kg cetirizine, 0.6 mg/kg famotidine, each alone, oral twice daily 3.5 days; FIG. 8
rat colonic mucosa [5] = assay: Forskolin-induced short-circuit current across rat colonic mucosa; assay type: cell-based; details: 6 μM famotidine, 3 μM cetirizine, each alone; FIG. 4
Text: as §1, §2

[6] = tested on: acetic acid-induced colonic hypersensitivity; details: famotidine 0.6 mg/kg, cetirizine 0.25 mg/kg, each alone, oral twice daily 3.5 days; FIG. 7
[7] = famotidine 0.6 mg/kg, cetirizine 0.25 mg/kg, each alone, FIG. 6
[8] = lowest doses: famotidine 0.3 mg/kg, cetirizine 0.15 mg/kg, alone or in combination, FIG. 5

## O=C(O)COCCN1CCN(C(c2ccccc2)c2ccc(Cl)cc2)CC1 (centres unmarked) [cetirizine]
Rat colonic mucosa [1]
  effect on PGE2-induced changes in ISC: neither drug alone was effective
[2]; [7]
  effect on colonic hypersensitivity: neither drug alone had an effect
[2]; [8]
  effect on colonic hypersensitivity: had no effect on colonic hypersensitivity
Rat colonic mucosa [3]
  effect on EFS-induced ΔISC: had no effect
  inhibition of EFS-induced ΔISC: modest changes in ISC
Colonic hypersensitivity
  inhibitory effect on colonic hypersensitivity in all three rat models: did not result in sufficient inhibition
[4]
  effect on TNBS-induced colonic hypersensitivity: Neither cetirizine alone nor famotidine alone exhibited any effect
Rat colonic mucosa [5]
  effect on forskolin-induced changes in ISC: only minimally effective

## NC(N)=Nc1nc(CSCCC(N)=NS(N)(=O)=O)cs1 [famotidine]
Rat colonic mucosa [1]
  effect on PGE2-induced changes in ISC: neither drug alone was effective
[2]; [7]
  effect on colonic hypersensitivity: neither drug alone had an effect
[2]; [8]
  effect on colonic hypersensitivity: had no effect on colonic hypersensitivity
Rat colonic mucosa [3]
  effect on EFS-induced ΔISC: had no effect
  inhibition of EFS-induced ΔISC: modest changes in ISC
Colonic hypersensitivity
  inhibitory effect on colonic hypersensitivity in all three rat models: did not result in sufficient inhibition
[4]
  effect on TNBS-induced colonic hypersensitivity: Neither cetirizine alone nor famotidine alone exhibited any effect
Rat colonic mucosa [5]
  effect on forskolin-induced changes in ISC: only minimally effective
[6]
  inhibition of acetic acid-induced colonic hypersensitivity: not either drug alone, induced a significant inhibition
